Data on ten compounds can be found in patent US20230107941A1, “HEPATITIS B CAPSID ASSEMBLY MODULATORS” (Venatorx Pharmaceuticals, Inc., priority 2019, published 2023).

The test system of one series is HBV. In words: In vitro antiviral assay: anti-HBV replication in HepAD38 cells (extracellular HBV DNA by QPCR). The series is classed as cell-based, hepatitis B virus (genotype D, serotype ayw). To be noted: Hepatitis B virus, HePAD38, 168 h, 7 days incubation, extracellular HBV DNA by QPCR, read-out: Anti-HBV EC50. The gist of the method:
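HepG2-derived HepAD38 cells (HBV genotype D, ayw, tet-repressible CMV) induced by tetracycline withdrawal, treated 7 days at 37 °C with compound (1 μM to 10 pM, 10-fold steps). Supernatant HBV DNA quantified by QPCR against standard curve, percent of DMSO control; EC50 by 4-parameter fit; entecavir positive control.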

Series [1] can be described thus: In vitro cytotoxicity assay (MTT cell viability) in HepG2 cells. The series is classed as cell-based, human. To be noted: human. The gist of the method:
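CC50 was derived by 4-parameter fit of viability relative to vehicle controls, measured as MTT formazan absorbance at 492 nm after 3–4 h of reagent and DMSO solubilization. Before that, HepG2 cells seeded overnight at 20,000/well were incubated 7 days at 37°C with compound from 30 μM down to 1.0 nM in half-log steps.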

Usually EC50 stands for the concentration that produces a half-maximal response. Usually CC50 stands for the concentration that lowers cell viability or growth by half. Higher therefore signals lower toxicity to the cells.

Consider `Cc1cc(NC(=O)c2c(C)c(C(=O)C(=O)N[C@H]3CC[C@@H](S(C)(=O)=O)CC3)n(C)c2CC2CC2)ccc1F` [Example 124, 2-(cyclopropylmethyl)-N-(4-fluoro-3-methylphenyl)-1,4-dimethyl-5-(2-(((1s,4s)-4-(methylsulfonyl)cyclohexyl)amino)-2-oxoacetyl)-1H-pyrrole-3-carboxamide], for which the EC50 with HBV is 50 to 499 nM. This compound also had a CC50 at 7 days in series [1] above 30000 nM.

`Cc1c(C(=O)Nc2cccc(S(N)(=O)=O)c2)c(C)n(C)c1C(=O)C(=O)NC(C)(C)C` [Example 65, 5-(2-(tert-butylamino)-2-oxoacetyl)-1,2,4-trimethyl-N-(3-sulfamoylphenyl)-1H-pyrrole-3-carboxamide]: in the series with HBV, the EC50 is above 1000 nM. The compound also returned a CC50 at 7 days in series [1] above 30000 nM.

For `Cc1cc(NC(=O)c2c(C)c(C(=O)C(=O)Nc3cccnc3N3CCOCC3)n(C)c2C)ccc1F` [Example 53, N-(4-fluoro-3-methylphenyl)-1,2,4-trimethyl-5-(2-((2-morpholinopyridin-3-yl)amino)-2-oxoacetyl)-1H-pyrrole-3-carboxamide], the EC50 in the series on HBV is below 50 nM. The CC50 at 7 days in series [1] is above 30000 nM.

`Cc1cc(NC(=O)c2c(C)c(C(=O)C(=O)N[C@H]3C[C@@H]4CC[C@H]3C4)n(C)c2C)ccc1F` [Example 22, 5-(2-(((1S,2S,4R)-bicyclo[2.2.1]heptan-2-yl)amino)-2-oxoacetyl)-N-(4-fluoro-3-methylphenyl)-1,2,4-trimethyl-1H-pyrrole-3-carboxamide]: in the series on HBV, the EC50 is below 50 nM. Also, the CC50 at 7 days in series [1] was 5000 to 30000 nM.

Consider `Cc1c(C(=O)Nc2ccc(F)c(C#N)c2)c(C)n(C)c1C(=O)C(=O)NC(C)(C)C` [Example 59, 5-(2-(tert-butylamino)-2-oxoacetyl)-N-(3-cyano-4-fluorophenyl)-1,2,4-trimethyl-1H-pyrrole-3-carboxamide], for which the EC50 with HBV was below 50 nM. Besides, in series [1], the CC50 at 7 days is above 30000 nM.

Regarding `Cc1cc(NC(=O)c2c(C(C)C)c(C(=O)C(=O)NCC(C)(C)O)n(C)c2C)ccc1F` [Example 94, N-(4-fluoro-3-methylphenyl)-5-(2-((2-hydroxy-2-methylpropyl)amino)-2-oxoacetyl)-4-isopropyl-1,2-dimethyl-1H-pyrrole-3-carboxamide], in the series on HBV, the EC50 was 500 to 1000 nM. In series [1], this compound registered a CC50 at 7 days above 30000 nM.

Take `Cc1cc(NC(=O)c2c(C)c(C(=O)C(=O)N[C@]3(C)C[C@H](O)C3)n(C)c2-c2ccncc2)ccc1F` [Example 161, N-(4-fluoro-3-methylphenyl)-5-(2-(((1s,3s)-3-hydroxy-1-methylcyclobutyl)amino)-2-oxoacetyl)-1,4-dimethyl-2-(pyridin-4-yl)-1H-pyrrole-3-carboxamide]: the EC50 in the series with HBV is above 1000 nM. In series [1], this compound came in with a CC50 at 7 days above 30000 nM.

Consider `Cc1c(C(=O)Nc2ccc(F)c(C#N)c2)c(C)n(C)c1C(=O)C(=O)N[C@H]1CC[C@@H](O)CC1` [Example 17, N-(3-cyano-4-fluorophenyl)-5-(2-(((1s,4s)-4-hydroxycyclohexyl)amino)-2-oxoacetyl)-1,2,4-trimethyl-1H-pyrrole-3-carboxamide], for which the half-maximal effective concentration (EC50) with HBV was below 50 nM. The compound also returned a 50% cytotoxic concentration (CC50) at 7 days in series [1] above 30000 nM.

For the compound `Cc1cc(NC(=O)c2c(C)c(C(=O)C(=O)N[C@H]3CC[C@@H](S(C)(=O)=O)CC3)n(C)c2-c2cccnc2)ccc1F` [Example 151, N-(4-fluoro-3-methylphenyl)-1,4-dimethyl-5-(2-(((1s,4s)-4-(methylsulfonyl)cyclohexyl)amino)-2-oxoacetyl)-2-(pyridin-3-yl)-1H-pyrrole-3-carboxamide], in the series with HBV, the EC50 was above 1000 nM. The compound further registered a CC50 at 7 days in series [1] above 30000 nM.

`CCC1(NC(=O)C(=O)c2c(C)c(C(=O)Nc3ccc(F)c(C)c3)c(C)n2C)CCN(S(C)(=O)=O)CC1` [Example 42, 5-(2-((4-ethyl-1-(methylsulfonyl)piperidin-4-yl)amino)-2-oxoacetyl)-N-(4-fluoro-3-methylphenyl)-1,2,4-trimethyl-1H-pyrrole-3-carboxamide]: in the series with HBV, the EC50 was below 50 nM. The compound also showed a CC50 at 7 days in series [1] above 30000 nM.
